The values that follow come from ChEMBL document CHEMBL5518235, “Identification of Novel Series of Potent and Selective Relaxin Family Peptide Receptor 1 (RXFP1) Agonists” (J Med Chem, 2024).

Values after ≈ are worked out from the molar mass of the structure shown. Bounds are passed on as bounds.

For one series, the target named is T1, Relaxin receptor 1 (Homo sapiens, UniProt Q9HBX9).
T1 sequence (Q9HBX9 whole entry): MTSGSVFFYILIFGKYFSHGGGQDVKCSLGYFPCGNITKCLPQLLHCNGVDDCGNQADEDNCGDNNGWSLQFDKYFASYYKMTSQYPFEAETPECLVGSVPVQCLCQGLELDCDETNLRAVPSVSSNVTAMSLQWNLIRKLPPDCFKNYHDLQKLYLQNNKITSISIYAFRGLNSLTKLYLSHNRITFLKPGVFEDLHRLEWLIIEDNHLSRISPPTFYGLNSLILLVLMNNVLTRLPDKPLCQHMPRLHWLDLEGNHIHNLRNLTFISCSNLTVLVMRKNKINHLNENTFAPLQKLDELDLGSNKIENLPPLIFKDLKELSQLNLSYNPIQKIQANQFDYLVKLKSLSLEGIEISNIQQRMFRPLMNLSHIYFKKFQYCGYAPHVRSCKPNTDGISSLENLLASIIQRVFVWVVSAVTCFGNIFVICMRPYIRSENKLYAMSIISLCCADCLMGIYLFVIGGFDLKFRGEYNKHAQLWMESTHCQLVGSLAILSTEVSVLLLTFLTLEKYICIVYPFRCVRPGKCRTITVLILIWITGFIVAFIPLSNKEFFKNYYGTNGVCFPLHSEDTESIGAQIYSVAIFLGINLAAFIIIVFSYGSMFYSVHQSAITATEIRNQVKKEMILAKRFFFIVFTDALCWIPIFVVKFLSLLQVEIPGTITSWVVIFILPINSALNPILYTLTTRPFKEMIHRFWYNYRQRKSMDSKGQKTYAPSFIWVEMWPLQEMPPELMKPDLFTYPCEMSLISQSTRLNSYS
Nature of the series: Agonist activity at human RXFP1 expressed in T-Rex-CHO-K1 cells assessed as stimulation of cAMP production incubated for 45 mins by HTRF assay. In kind it is functional, cell-based.

Series [1] is described as follows: Lipophilicity, logD of the compound in 1-octanol and phosphate buffer at pH 7.4 incubated for 3 hrs by shake flask method based LC/MS/MS analysis. The following applies: 1-octanol/phosphate buffer, pH 7.4. In kind it is physicochemical.
Series [2] is described as follows: Metabolic stability in cryopreserved human hepatocytes assessed as intrinsic clearance measured per 10^6 cells at 1 uM after 120 mins by LC-MS/MS analysis. Format: ADME, cell-based, Hepatocyte. The following applies: hepatocytes, 2 h, 1 µM.
Series [3] is described as follows: Metabolic stability in cryopreserved human hepatocytes assessed as unbound intrinsic clearance measured per 10^6 cells at 1 uM measured after 120 mins by LC-MS/MS analysis. In kind it is ADME, cell-based, Hepatocyte. The following applies: 2 h.
The nature of series [4]: Cytotoxicity against human THP-1 cells assessed as reduction of cell viability incubated for 48 hrs by resazurin reduction assay. Format: toxicity, cell-based.
For series [5], the target named is T2, A-type voltage-gated potassium channel KCND3 (Homo sapiens, UniProt Q9UK17).
T2 sequence (Q9UK17 whole entry): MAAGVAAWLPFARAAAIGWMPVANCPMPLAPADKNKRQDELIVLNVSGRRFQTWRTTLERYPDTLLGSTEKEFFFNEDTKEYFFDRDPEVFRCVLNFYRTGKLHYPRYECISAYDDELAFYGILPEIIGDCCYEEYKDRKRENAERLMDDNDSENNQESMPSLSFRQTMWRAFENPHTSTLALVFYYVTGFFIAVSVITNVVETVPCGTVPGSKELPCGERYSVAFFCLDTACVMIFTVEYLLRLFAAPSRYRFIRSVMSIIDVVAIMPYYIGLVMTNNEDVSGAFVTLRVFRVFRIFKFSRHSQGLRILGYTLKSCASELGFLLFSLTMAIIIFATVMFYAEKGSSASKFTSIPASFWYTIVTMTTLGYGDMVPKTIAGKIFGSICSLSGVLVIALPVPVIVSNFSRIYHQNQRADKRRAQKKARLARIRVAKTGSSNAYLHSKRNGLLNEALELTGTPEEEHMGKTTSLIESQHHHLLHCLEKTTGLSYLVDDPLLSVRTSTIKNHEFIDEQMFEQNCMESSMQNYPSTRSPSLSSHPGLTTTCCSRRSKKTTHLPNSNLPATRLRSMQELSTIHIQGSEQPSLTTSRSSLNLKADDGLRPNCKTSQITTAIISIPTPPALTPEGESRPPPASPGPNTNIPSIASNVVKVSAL
In words: Inhibition of human Kv4.3 by automated electrophysiology recording. Format: toxicity.

For the next series, the system named is IKs channel. In words: Inhibition of human IKS channel by automated electrophysiology recording. Format: toxicity.
Series [6] can be described thus: Metabolic stability in Han Wistar rat hepatocytes assessed as intrinsic clearance measured per 10^6 cells at 1 uM after 120 mins by LC-MS/MS analysis. The following applies: read-out: CLH. In kind it is ADME, cell-based, Hepatocyte.
The nature of series [7]: Oral bioavailability in Han Wistar rat at 1.46 micromol/kg by LC-MS/MS analysis. Format: ADME, organism-based. The following applies: in vivo, 1.46 µmol/kg.
Series [8] in a line: Volume of distribution at steady state in Han Wistar rat at 0.73 micromol/kg, iv by LC-MS/MS analysis. In kind it is ADME, organism-based. The following applies: in vivo, dose 0.73 µmol/kg, read-out: Vdss.
Series [9] in a line: Solubility of compound in FaSSIF at pH 6.5. Format: ADME.
Series [10] has as its target T3, Relaxin receptor 1 (Rattus norvegicus) (UniProt Q6R6I6).
T3 sequence (whole entry): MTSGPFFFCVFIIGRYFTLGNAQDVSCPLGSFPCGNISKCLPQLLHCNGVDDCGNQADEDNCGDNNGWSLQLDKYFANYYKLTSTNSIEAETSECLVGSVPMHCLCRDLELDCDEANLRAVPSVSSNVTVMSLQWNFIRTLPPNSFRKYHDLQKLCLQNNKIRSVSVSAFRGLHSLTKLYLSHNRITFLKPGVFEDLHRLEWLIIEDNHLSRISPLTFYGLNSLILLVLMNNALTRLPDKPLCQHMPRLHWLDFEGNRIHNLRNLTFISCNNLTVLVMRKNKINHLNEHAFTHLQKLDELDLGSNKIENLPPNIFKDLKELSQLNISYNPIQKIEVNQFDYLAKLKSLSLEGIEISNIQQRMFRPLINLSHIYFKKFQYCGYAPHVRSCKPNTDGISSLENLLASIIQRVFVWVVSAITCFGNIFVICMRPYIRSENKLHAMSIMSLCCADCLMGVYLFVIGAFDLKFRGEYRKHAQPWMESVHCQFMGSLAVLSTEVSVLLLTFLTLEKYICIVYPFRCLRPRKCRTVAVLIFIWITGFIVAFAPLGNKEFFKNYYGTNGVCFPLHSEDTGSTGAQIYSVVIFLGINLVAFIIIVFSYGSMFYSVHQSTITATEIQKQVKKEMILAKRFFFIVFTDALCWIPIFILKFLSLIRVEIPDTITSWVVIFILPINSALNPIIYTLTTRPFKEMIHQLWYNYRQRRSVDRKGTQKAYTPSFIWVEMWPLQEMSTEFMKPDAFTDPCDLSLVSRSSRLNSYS
In words: Agonist activity at rat RXFP1 expressed in T-Rex-CHO-K1 cells assessed as stimulation of cAMP production by measuring unbound concentration incubated for 60 mins by HTRF assay. Format: functional, cell-based. The following applies: filed as agonist.

Series [11] is described as follows: Unbound Cmax in Sprague-Dawley rat at 1.5 mg/kg, iv administered via bolus followed by 9.0 mg/kg, iv administered via infusion for 3 hrs and measured 1 hrs post washout by LC-MS/MS analysis. Format: ADME, organism-based. The following applies: in vivo.
Series [12] can be described thus: Cytotoxicity against human HepG2 cells cultured under galactose condition assessed as reduction in cell viability. In kind it is toxicity, cell-based.

`COc1cc(F)c(O[C@H]2CC[C@@](C)(C(=O)O)CC2)cc1C(=O)N[C@@H]1[C@H]2CC[C@H](C2)[C@@H]1C(=O)Nc1ccc(F)c(S(F)(F)(F)(F)F)c1`: at Relaxin receptor 1, the EC50 is 0.000398 µM. Besides, the logD at 3 h in series [1] amounted to 4.9. Also, the CLH in series [2] worked out at 21 µL/min/1e6 cells. For the same compound, the CL free in series [3] is 2.1 µL/min. For the same compound, the IC50 at 48 h in series [4] was determined as 15 µM. For the same compound, the IC50 in [5] is more than 33 µM; with IKs channel it was more than 33 µM; in [12] it was 37 µM. Further, the hepatocyte CLint at 1 µM in series [6] is 24 µL/min/1e6 cells. For the same compound, in series [7], the bioavailability was determined as 11%. Also, in series [8], the Vd stood at 2.3 L/kg. For the same compound, the solubility in [9] came out at 6.3 µM (≈ 4.3 µg/mL). Also, in [10], the fEC50 is 17 nM. Besides, the fCmax in series [11] was found to be 10 nM.
